Data published in publication PMC5490407, “Chiral Derivatives of Xanthones: Investigation of the Effect of Enantioselectivity on Inhibition of Cyclooxygenases (COX-1 and COX-2) and Binding Interaction with Human Serum Albumin” (Pharmaceuticals, 2017).

Legend:
[1] = molecular target: T1, COX-2 (Homo sapiens, UniProt P35354); experiment: COX Inhibitor Screening Assay Kit, COX-2 inhibition; format: biochemical; settings: for percentage of enzyme inhibition, COX-2: CDXs 20 µmol/L, mean ± standard deviation, triplicate in two independent days
T1 construct: purchased Cayman Chemical
T1 sequence (P35354 18-604): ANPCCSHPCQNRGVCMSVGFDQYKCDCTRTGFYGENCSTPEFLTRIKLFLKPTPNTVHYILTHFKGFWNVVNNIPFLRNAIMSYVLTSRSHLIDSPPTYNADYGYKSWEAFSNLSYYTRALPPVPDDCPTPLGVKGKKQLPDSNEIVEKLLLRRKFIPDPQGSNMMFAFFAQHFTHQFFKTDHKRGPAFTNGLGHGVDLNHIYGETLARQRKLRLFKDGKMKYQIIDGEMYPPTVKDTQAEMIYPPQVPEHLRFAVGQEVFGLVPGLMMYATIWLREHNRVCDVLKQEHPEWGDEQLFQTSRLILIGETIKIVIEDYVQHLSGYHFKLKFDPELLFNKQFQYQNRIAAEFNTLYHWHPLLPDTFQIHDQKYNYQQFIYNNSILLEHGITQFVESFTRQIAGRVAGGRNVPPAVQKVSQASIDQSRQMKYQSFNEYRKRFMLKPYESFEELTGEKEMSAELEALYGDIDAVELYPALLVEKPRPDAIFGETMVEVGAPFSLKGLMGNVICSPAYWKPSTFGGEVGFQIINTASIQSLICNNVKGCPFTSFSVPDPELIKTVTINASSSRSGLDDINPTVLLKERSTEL
Method: (§1) The effect of CDXs previously obtained in our group as inhibitors of membrane located enzymes that might be involved in inflammatory processes, namely COX-1 and COX-2, was evaluated. Three enantiomeric pairs of CDXs were chosen to study the inhibitory effect of both enantiomers of each pair face to biological targets in order to evaluate potency and enantioselectivity. The effect on COXs activity was studied by spectrofluorimetry using a commercial kit measuring the peroxidation activity of COXs. The kit includes isoenzyme-specific inhibitors for distinguishing COX-1 from COX-2 activities.
(§2) The evaluation of the inhibition of COX-1 and COX-2 by CDXs was conducted using the commercially available COX (ovine/human) Inhibitor Screening Assay Kit (Cayman Chemical, Michigan, MI, USA). Briefly, the assay implies an enzymatic immunoassay based on the competition between prostaglandins (PGs) and a PG-acetylcholinesterase (AChE) conjugate (PG tracer), which is then evaluated by the addition of Ellman’s reagent. All the solutions required for the experiment were prepared according to the manufacturer’s instructions. Each compound was analysed in two independent days, in triplicate. CDX working solutions were prepared in DMSO to a final concentration of 20 µM. […] Absorbance measurements at 412 nm were performed in a Synergy HT microplate reader (Bio-Tek Instruments, Winooski, VT, USA) operated with Gen5 software (Bio-Tek Instruments).

[2] = molecular target: T2, COX-1 (Ovis aries, UniProt P05979); experiment: COX Inhibitor Screening Assay Kit, COX-1 inhibition; format: biochemical, ovine; settings: CDXs 20 µmol/L; mean ± standard deviation, triplicate in two independent days
T2 construct: purchased Cayman Chemical
T2 sequence (P05979 25-600): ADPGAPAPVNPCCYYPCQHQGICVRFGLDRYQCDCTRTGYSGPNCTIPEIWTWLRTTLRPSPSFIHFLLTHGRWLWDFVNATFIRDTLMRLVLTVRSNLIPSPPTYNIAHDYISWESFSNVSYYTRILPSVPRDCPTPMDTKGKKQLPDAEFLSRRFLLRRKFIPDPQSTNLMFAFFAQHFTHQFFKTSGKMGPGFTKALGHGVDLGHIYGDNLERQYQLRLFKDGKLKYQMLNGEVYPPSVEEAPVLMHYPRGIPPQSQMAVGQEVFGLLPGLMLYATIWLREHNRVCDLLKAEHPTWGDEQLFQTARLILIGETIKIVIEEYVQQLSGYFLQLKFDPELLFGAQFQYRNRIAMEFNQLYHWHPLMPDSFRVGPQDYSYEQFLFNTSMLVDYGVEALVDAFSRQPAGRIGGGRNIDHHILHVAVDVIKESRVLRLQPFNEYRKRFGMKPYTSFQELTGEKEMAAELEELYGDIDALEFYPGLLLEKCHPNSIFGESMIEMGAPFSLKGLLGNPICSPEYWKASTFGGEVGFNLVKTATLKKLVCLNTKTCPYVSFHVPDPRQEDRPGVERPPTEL
Method: as §1, §2

[3] = molecular target: T3, HSA (Homo sapiens, UniProt P02768); experiment: Interaction with human serum albumin by fluorescence quenching; format: binding; settings: for Ymax, maximum percentage of HSA fluorescence quenching / Kd: HSA 2 µM, pH 7.4, 25 °C; for Ymax, maximum percentage of HSA fluorescence quenching / Kd / ∆G Binding: mean ± standard deviation of triplicate runs; for Kd: read-out: Kd, dissociation constant of CDX-HSA; for ∆G Binding: HSA binding
T3 construct: purchased Sigma-Aldrich
Method: Evaluation of the binding of CDXs to HSA was based on the quenching of HSA intrinsic fluorescence. Phosphate buffer consisting of 7.5 mM Na2HPO4, 1.5 mM KH2PO4 and 140 mM NaCl (pH 7.4) was used in the preparation of CDX solutions. Solutions of HSA fraction V (Sigma-Aldrich, St. Louis, MO, USA) were prepared in water. Briefly, 500 µL of HSA (fixed final concentration 2 µM), increasing volumes of drug solution (n = 13, 0–200 µM) and phosphate buffer solution (pH 7.4) were mixed to a final volume of 1500 µL. The corresponding blank solutions were identically prepared and analysed in the absence of the drug. Fluorescence emission spectra were recorded in the range of 300–450 nm upon excitation at 295 nm. Excitation spectra were also recorded between 220 and 310 nm with emission set at 330 nm. For individual measurements, excitation and emission wavelength were set at 295 nm and 330 nm, respectively. For each measurement, fluorescence emission was automatically acquired during 180 s (5 nm bandwidth). For all compounds, UV-vis absorption spectra (200–500 nm) were recorded. These measurements were used to correct the fluorescence intensity values due to inner filter effects at the excitation wavelength. All experiments were performed at room temperature (25 ± 1 °C). Fluorescence and absorbance measurement were performed in a LS-50B spectrometer (Perkin Elmer, Waltham, MA, USA) and a V-660 spectrophotometer (Jasco, Easton, MD, USA) respectively.
HSA-CDX binding parameters were calculated using the Origin 8.5.1 software (8.5.1, Northampton, MA, USA). The fitting of the experimental values was made according to the Langmuir binding equation (Equation (1)) to calculate HSA binding parameters: (1) [HSA−CDX]=[HSA]/1+ Kd/[CDX] where [HSA], [CDX] and [HSA-CDX] are given in μM and Kd corresponds to the dissociation constant of HSA-CDX complexes.
In terms of fluorescence quenching mediated by the compound, the previous Langmuir isotherm can be rewritten as follows (Equation (2)):(2) %quenching=ymax^n/1+ Kd/[CDX] where ymax corresponds to the highest percentage of quenching induced by a given compound and n accounts for the number of biding sites of the enzyme to the CDX. Finally, free Gibbs energy (ΔG) was also determined for all the interactions.

T3 sequence (P02768 25-609): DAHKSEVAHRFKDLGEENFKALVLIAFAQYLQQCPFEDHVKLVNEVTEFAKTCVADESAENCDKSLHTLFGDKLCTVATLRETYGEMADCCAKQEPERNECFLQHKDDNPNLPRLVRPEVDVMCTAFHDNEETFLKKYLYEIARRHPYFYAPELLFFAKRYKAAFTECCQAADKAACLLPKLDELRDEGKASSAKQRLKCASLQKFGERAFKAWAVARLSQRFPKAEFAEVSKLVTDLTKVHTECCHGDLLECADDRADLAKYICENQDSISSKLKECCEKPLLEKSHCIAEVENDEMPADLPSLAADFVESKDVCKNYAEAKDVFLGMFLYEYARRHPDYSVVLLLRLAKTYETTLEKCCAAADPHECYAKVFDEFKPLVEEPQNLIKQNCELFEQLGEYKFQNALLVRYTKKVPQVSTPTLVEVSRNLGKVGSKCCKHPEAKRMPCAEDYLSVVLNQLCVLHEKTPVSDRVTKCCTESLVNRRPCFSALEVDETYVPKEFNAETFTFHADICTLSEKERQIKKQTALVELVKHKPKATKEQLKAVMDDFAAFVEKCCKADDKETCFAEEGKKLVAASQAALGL

Row | Compound | percentage of enzyme inhibition, COX-2 [1] | percentage of enzyme inhibition, COX-1 [2] | Ymax, maximum percentage of HSA fluorescence quenching [3] | Kd [3] | enzyme-type selectivity COX-2 vs COX-1 ([1]; paired t-test, p < 0.05) | ∆G Binding [3] | difference in HSA binding affinity between (S)- and (R)-enantiomers ([3]; (S)-enantiomer higher affinity than (R)-enantiomer)
1 | COc1ccc2c(=O)c3cc(C(=O)N[C@H](CO)c4ccccc4)ccc3oc2c1 [(S)-(−)-CDX1] | 80.1 ± 12.8% | 87.6 ± 2.1% | 105.3 ± 0.4% | 23.6 ± 0.8 µM | – | – | –
2 | COc1ccc2c(=O)c3cc(C(=O)N[C@H](CO)C(C)C)ccc3oc2c1 [(S)-(−)-CDX2] | 85.7 ± 4.5% | 82.9 ± 5.2% | 107.4 ± 5.4% | 24.7 ± 1.1 µM | – | – | –
3 | COc1ccc2c(=O)c3cc(C(=O)N[C@@H](CO)C(C)C)ccc3oc2c1 [(R)-(+)-CDX2] | 73.2 ± 0.4% | 66.8 ± 1.6% | 108.2 ± 0.2% | 29.2 ± 0.9 µM | more active at inhibiting COX-2 than COX-1 | -2.0 ± 0.1 kcal/mol | –
4 | COc1ccc2c(=O)c3cc(C(=O)N[C@H](C)CO)ccc3oc2c1 [(R)-(−)-CDX3] | 75.1 ± 7.2% | 75.2 ± 9.0% | 113.2 ± 1.4% | 26.4 ± 1.2 µM | – | – | –
5 | COc1ccc2c(=O)c3cc(C(=O)N[C@@H](CO)c4ccccc4)ccc3oc2c1 [(R)-(+)-CDX1] | 84.7 ± 5.7% | 79.6 ± 5.0% | 109.6 ± 1.6% | 61.8 ± 6.5 µM | – | – | –
6 | COc1ccc2c(=O)c3cc(C(=O)NC(CO)c4ccccc4)ccc3oc2c1 (stereo not shown) [CDX1] | – | – | – | – | – | – | ca. 2.6 fold
7 | COc1ccc2c(=O)c3cc(C(=O)N[C@@H](C)CO)ccc3oc2c1 [(S)-(+)-CDX3] | 93.4 ± 11.4% | 91.7 ± 10.7% | 116.2 ± 0.6% | 31.4 ± 2 µM | – | -2.0 ± 0.2 kcal/mol | –
